Test results: patent US20230323466A1, “DETERMINING CANCER RESPONSIVENESS TO TREATMENT” (Queensland University of Technology, priority 2020, published 2023)
pIC50: −log10 of the molar value.

What was measured:
[1] = tested on: control and CDCA3-depleted cells; test: Mitotic entry and recovery from cisplatin-induced G2 checkpoint, flow cytometry of Ser-10 phosphorylated histone H3 (FIG. 2C); format: cell-based; details: after cisplatin-induced G2 checkpoint; both control and CDCA3-depleted cells
From the text: FIG. 2. (A) Undamaged cells depleted of CDCA3 progress to mitosis slower than control cells or cells complemented with siRNA resistant CDCA3. (B) Cisplatin treated cells and depleted of CDCA3 are unable to recover from cell cycle arrest. (C) Cells treated with Cisplatin and then a PLK1 inhibitor are unable to recover from cell cycle arrest.
As this protein is reported to regulate cell proliferation (as confirmed by data in FIG. 7), the present inventors investigated its potential role in cell cycle progression from G2 into mitosis. To examine cell cycle progression, control cells, CDCA3-depleted cells or depleted cells ectopically expressing siRNA resistant CDCA3-FLAG were synchronized at the G1/S cell cycle boundary by a double thymidine block and released for seven hours (˜G2 phase). At this time cells were treated with or without cisplatin for 3.5 h and released into nocodazole containing media to capture cells in mitosis. Mitotic cells were determined by flow cytometry analysis of cells stained for Ser-10 phosphorylated histone H3. In undamaged cells, CDCA3 depletion slowed the progression of cells from G2 into mitosis (FIG. 2A). However, in cisplatin treated cells, CDCA3 depletion abolished mitotic progression with an inability to recover from G2 cell cycle arrest (FIG. 2B). […]

PLK1 = test: Mitotic index (H3S10ph) in cells expressing wildtype or T210D PLK1 (FIG. 4D); format: cell-based; details: dose dependent
NSCLC cells [2] = test: Cell death with cisplatin and/or BI 2536 in control versus CDCA3 depleted NSCLC cells (FIG. 9B); format: cell-based; details: monotherapy
CDCA3 and PLK1 = test: Immunoprecipitation of CDCA3 with PBD of PLK1 under CDK1 inhibition (FIG. 5E); format: cell-based; details: inhibition of CDK1 to block CDCA3 phosphorylation
From the text: FIG. 5. (A) PLK1 schematic listing kinase domain and polo-box domain (PBD). (B) CDCA3 immunoprecipitates with the PBD of PLK1 irrespective of the phospho-binding mutant (H538 and K540 each mutated to alanine residues). (C) CDCA3 is phosphorylated by CDK1-cyclin B1 causing a large molecular weight shift measured by SDS-PAGE. (D) Mutating each of the five CDK1-cyclin B1 phosphorylation sites within CDCA3 enhances binding to PLK1. (E) Inhibition of CDK1 with RO3306 enhances immunoprecipitation of CDCA3 with the PBD domain of PLK1. (F) Unmodified recombinant CDCA3 binds to recombinant Aurora A and PLK1. CDCA3 pre-phosphorylated by CDK1-cyclin B1 binds markedly less to PLK1 than unmodified CDCA3. (G) Recombinant unmodified CDCA3 but not phosphorylated CDCA3 enhances the in vitro activation and phosphorylation of PLK1 by Aurora A.
The present inventors next examined the mechanism regulating the association between CDCA3 and PLK1. The structure of PLK1 consists of an N-terminal kinase domain and a […] polo-box domain (PBD; FIG. 5A). Classically, the PBD binds phosphorylated substrates requiring the residues His538 and Lys540. Using immunoprecipitation analysis of lysates from cells ectopically expressing CDCA3 and the PBD of PLK1, it was identified that CDCA3 associates with the PLK1 PBD independent of residues His538 and Lys540 (FIG. 5B). […]

NSCLC cells [3] = test: Cisplatin IC50 in CDCA3-depleted versus control NSCLC cells (FIG. 8); format: cell-based
From the text: FIG. 8. CDCA3-depletion reduces cisplatin IC50 values ˜2-4 fold versus control NSCLC cells but not non-tumorigenic lung epithelial HBEC cells, indicating increased sensitivity to cisplatin in NSCLC in vitro.
To investigate the diagnostic potential for CDCA3, the present inventors stratified the UT Lung SPORE cohort data based on CDCA3 expression (CDCA3low=below median, CDCA3high=above median). In this trial, patients undergoing curative resection were either observed only (OBS) or received adjunct chemotherapy (ACT).

PC-9 cells = format: cell-based; details: for effect of ectopic CDCA3 expression on sensitivity: PC-9 parental cells; for enhancement of potency by ectopic CDCA3 expression: PC-9 resistant cells
Procedure: (§1) All NSCLC cell lines were obtained from the American Type Culture Collection (ATCC) except for PC-9 cell line which was sourced from the European Collection of Cell Cultures (ECACC). Cells were grown in RPMI-1640-medium containing L-glutamine (Life Technologies) and 10% foetal bovine serum (FBS, Sigma Aldrich). […] All cell lines were cultured at 37° C. in a humidified 5% CO2 incubator and routinely tested for mycoplasma contamination. Transfection of CDCA3-FLAG expression construct was performed using the FuGene HD transfection reagent (Promega Corporation).
(§2) Cells were seeded into a white-walled, glass-bottomed 384-well plate (Nunc) at a density of 1x10^3 cells per well. […] Cell viability was determined using CellTitre-Glo 2.0 (Promega Corporation) according to the manufacturer's instructions. Luminescence was scanned and analysed on the FLUOstar Omega Microplate Reader (BMG Labtech). Data was normalised to untreated controls and dose response curves and drug potency values generated using GraphPad Prism V9 software.
(§3) The present inventors next sought to assess this possibility in in vitro models of acquired TKI resistance. […] Cells not exposed to TKI were also maintained in culture for the same period, hereafter referred to as the parental cells.

H1650 cells = test: Cell viability assay (CellTitre-Glo 2.0), H1650; format: cell-based; details: relative to other cell lines
Procedure: as §1, §2
(§4) The present inventors evaluated TCGA datasets and correlated relative CDCA3 expression against available WikiPathways (2) of known measures of TKI resistance. […] Relative CDCA3 protein levels were correlated with the TKI potency values.

H1975 cells = test: Cell viability assay (CellTitre-Glo 2.0), H1975; format: cell-based; details: Homo sapiens, NCI-H1975, 72 h
Procedure: as §1, §2, §4

HCC827 cells = tested on: HCC827 cells
Procedure: as §1, §2, §3

CDCA3 = CDCA3 levels after TKI treatment of EGFR mut NSCLC cell lines (FIG. 12); format: cell-based; details: H1975 cells (L858R, T790M)
Procedure: Given CDCA3 levels are responsive to EGFR activation, the present inventors examined CDCA3 levels following second and third generation TKI treatment of three EGFR^mut cell lines; HCC827 and H1650 (exon 19 deletion E746-A750) and H1975 cells (L858R, T790M-resistant to first and second generation TKI).
To collect whole cell lysates, cells were first washed in PBS then lysed in lysis buffer (50 mM HEPES (pH 7.5), 150 mM KCl, 5 mM EDTA, 0.05% IGEPAL CA-630 (v/v), 1× protease inhibitor cocktail (Roche), and 1× phosphatase inhibitor cocktail (Cell Signalling Technology). Total protein was determined by bicinchoninic acid (BCA) protein assay (Sigma Aldrich) following lysate sonication and centrifugation. Samples (total protein 20 20 μg) were denatured in 1× Laemmli Buffer supplemented with 8% β-mercaptoethanol for 5 minutes at 80° C.
The samples were separated on Bolt 4-12% Bis-Tris Plus pre-cast gels (Invitrogen) and transferred onto nitrocellulose membrane (GE Healthcare Life Sciences) using the semi-dry Novex XCell II Blot Module transfer system (Life Technologies). The nitrocellulose membranes were blocked using Odyssey blocking buffer (Li-Cor) before incubation overnight at 4° C. with primary antibody in a 1:1 solution of PBS-T and Odyssey Blocking Buffer. Following primary antibody incubation, membranes were washed with PBS-T and incubated with the appropriate secondary antibodies. […]

CC[C@@H]1C(=O)N(C)c2cnc(Nc3ccc(C(=O)NC4CCN(C)CC4)cc3OC)nc2N1C1CCCC1 [BI 2536]
mitotic entry [1]: blocked mitotic entry
mitotic entry (mitotic index) (PLK1): reduced
cell death (NSCLC cells [2]; CDCA3 depleted cells): ~13%
cell death (NSCLC cells [2]; control cells): ~30%

O=C1NC(=NCc2cccs2)S/C1=C\c1ccc2ncccc2c1 [R03306]
association between CDCA3 and PLK1 (CDCA3 and PLK1): increase

N.N.[Cl][Pt][Cl] [cisplatin]
reduction of cisplatin IC50 values by CDCA3-depletion (NSCLC cells [3]): 2-4 fold

C#Cc1cccc(Nc2ncnc3cc(OCCOC)c(OCCOC)cc23)c1 [erlotinib]
effect of ectopic CDCA3 expression on sensitivity (PC-9 cells): did not impact
enhancement of potency by ectopic CDCA3 expression (PC-9 cells): ~57 fold
sensitivity (H1650 cells): insensitive
pIC50 (H1975 cells): 4.18
effect of ectopic CDCA3 expression on sensitivity (HCC827 cells): did not impact

C=CC(=O)Nc1cc(Nc2nccc(-c3cn(C)c4ccccc34)n2)c(OC)cc1N(C)CCN(C)C [osimertinib]
CDCA3 levels (CDCA3): reduced
effect of ectopic CDCA3 expression on sensitivity (PC-9 cells): did not impact
enhancement of potency by ectopic CDCA3 expression (PC-9 cells): 54 fold
increase in IC50 values versus parental (PC-9 cells; erlotinib resistant PC-9 versus parental PC-9): ~1,470 fold
effect of ectopic CDCA3 expression on sensitivity (HCC827 cells): did not impact
enhancement of potency by ectopic CDCA3 expression (HCC827 cells): ~121 fold
increase in IC50 values versus parental (HCC827 cells): ~385 fold
